Test results reported in patent publication US12030876B2, “Aryl hydrocarbon receptor (AHR) agonists and uses thereof” (Ikena Oncology, Inc., priority 2019, dated 2024).
pEC50: −log10 of the molar value. Like-named read-outs stand apart in the source and are kept apart here.

Assays:
AHR [1] = biological target: T1, AHR (Homo sapiens, UniProt P35869); experiment: DRE-Luciferase Reporter Assay, HepG2 (agonist); format: cell-based; conditions: read-out: DRE-Luc HepG2 - Agonist: Average EC50
T1 construct: endogenous in cells; host or cells: HepG2 (human), transfected with a DRE-luciferase reporter only
T1 sequence (P35869 11-848): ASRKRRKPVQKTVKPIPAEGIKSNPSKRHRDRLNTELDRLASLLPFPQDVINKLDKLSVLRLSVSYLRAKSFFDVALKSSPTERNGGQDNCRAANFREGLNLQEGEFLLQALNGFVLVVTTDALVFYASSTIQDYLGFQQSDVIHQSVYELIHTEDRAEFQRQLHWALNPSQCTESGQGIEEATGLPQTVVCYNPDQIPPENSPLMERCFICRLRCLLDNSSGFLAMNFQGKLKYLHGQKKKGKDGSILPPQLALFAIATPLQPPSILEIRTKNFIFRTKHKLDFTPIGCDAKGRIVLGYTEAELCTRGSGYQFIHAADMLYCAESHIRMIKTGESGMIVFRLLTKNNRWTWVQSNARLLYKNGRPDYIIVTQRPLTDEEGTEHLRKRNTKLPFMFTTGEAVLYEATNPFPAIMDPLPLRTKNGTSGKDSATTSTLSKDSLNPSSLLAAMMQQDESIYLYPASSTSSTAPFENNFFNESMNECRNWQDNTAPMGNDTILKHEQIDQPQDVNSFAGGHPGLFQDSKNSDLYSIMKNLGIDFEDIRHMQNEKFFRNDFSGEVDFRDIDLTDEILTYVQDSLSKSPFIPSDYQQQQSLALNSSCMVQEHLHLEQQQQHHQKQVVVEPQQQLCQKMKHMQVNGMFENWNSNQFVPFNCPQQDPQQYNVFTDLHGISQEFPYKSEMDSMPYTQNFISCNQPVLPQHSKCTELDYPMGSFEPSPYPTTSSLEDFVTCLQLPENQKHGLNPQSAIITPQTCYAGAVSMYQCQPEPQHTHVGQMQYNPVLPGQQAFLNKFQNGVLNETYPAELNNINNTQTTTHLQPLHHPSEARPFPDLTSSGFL
Procedure, shortened: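 Cells carrying a stably or transiently transfected DRE-luciferase reporter, plated overnight at 37 C, then given agonist for 6, 16 or 24 h before lysis and luciferase read-out. Signal scaled between no ligand (minimum) and activating ligand alone, e.g. TCDD (maximum); EC50 = concentration giving half-maximal luciferase activity.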

AHR [2] = biological target: T2, AHR (Mus musculus, UniProt P30561); experiment: P450 CYP1A1 Luciferase Assay, Hepa1.6 (agonist); format: cell-based, murine; conditions: Hepa1.6, Table 2
T2 sequence (P30561 1-848 F348L/P471L): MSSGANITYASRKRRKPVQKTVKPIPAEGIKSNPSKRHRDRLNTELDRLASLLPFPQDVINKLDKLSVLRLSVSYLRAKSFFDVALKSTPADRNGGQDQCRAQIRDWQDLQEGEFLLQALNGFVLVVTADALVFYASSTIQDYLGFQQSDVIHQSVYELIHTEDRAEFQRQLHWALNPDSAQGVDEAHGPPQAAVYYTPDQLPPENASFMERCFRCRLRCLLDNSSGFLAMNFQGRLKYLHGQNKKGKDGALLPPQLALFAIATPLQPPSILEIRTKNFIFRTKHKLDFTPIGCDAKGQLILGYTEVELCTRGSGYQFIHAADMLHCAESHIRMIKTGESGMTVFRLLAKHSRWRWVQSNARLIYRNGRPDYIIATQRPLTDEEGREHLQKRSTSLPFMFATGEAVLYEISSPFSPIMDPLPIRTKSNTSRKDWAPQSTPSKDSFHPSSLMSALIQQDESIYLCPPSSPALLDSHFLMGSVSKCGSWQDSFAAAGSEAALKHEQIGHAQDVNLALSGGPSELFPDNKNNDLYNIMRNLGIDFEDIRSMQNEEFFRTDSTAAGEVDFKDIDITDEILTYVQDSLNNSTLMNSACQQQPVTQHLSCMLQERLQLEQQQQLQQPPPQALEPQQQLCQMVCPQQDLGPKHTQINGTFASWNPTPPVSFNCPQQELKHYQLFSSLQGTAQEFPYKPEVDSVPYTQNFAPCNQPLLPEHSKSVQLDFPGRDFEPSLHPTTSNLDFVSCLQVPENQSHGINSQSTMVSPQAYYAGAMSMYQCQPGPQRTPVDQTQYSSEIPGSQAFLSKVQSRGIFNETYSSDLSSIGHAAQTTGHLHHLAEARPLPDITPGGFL
Procedure, shortened: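 Murine Hepa1-6 (or other murine/human lines) treated with agonist for 6, 16 or 24 h, then lysed and incubated with luminogenic CYP1A1 substrate (e.g. Luciferin-CEE). Luminescence normalised between no-ligand minimum and reference AHR ligand maximum; EC50 is concentration giving half-maximal activation.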

[3] = system: DSS model of Inflammatory Bowel Disease (IBD); format: in vivo, C57Bl/6 mice
Description: On study day −1, C57Bl/6 mice are weighed and randomized into treatment groups based on body weight. On study day 0, treatment groups are given 2.5% DSS in drinking water and treatment is initiated on the same day, with either vehicle or AHR agonist compound(s). On study day 7, DSS drinking water is replaced with normal drinking water for the remainder of the study. Body weight is measured daily during the entire study. On study day 10, animals are anesthetized with Isoflurane and bled to exsanguination followed by cervical dislocation. The entire colon is removed and measured for length, weight, and weight per length. Overall efficacy of test AR agonist compounds is based on body weight, colon length, and colon histopathology. Histopathology data is assessed for appropriate parameters, as determined by a pathologist and the parameters for these DSS studies can include inflammation, erosion, gland loss, edema, hyperplasia, neutrophil count, mucosal thickening, lymphoid aggregate count and lymphoid aggregate size. The different parameter scores can be added for a summed score for the study histopathology.

AHR [4] = biological target: T2, AHR; experiment: DRE-Luciferase Reporter Assay, Hepa1.6 (agonist); format: cell-based, murine; conditions: Hepa1.6, Table 3; read-out: DRE-Luc Hepa1.6 - Agonist: Average EC50
Description: DRE-Luciferase Reporter Assay
AHR binds to Dioxin Responsive Elements (DRE) upstream of genes that it activates. One measure of AHR activity is activation of a reporter gene, such as luciferase, downstream of one or multiple DRE elements. Luciferase activity reflects activation and inhibition of AHR in the cells expressing this reporter.
Murine Hepa1-6 or Hepa-1c1c7 or other murine cell line with a DRE-luciferase reporter either stably or transiently transfected are plated in media in plates (96-well, 384-well or other plates) and incubated overnight at 37 C in a CO2 incubator. Likewise, human HepG2 or other human cell line with a DRE-luciferase reporter either stably or transiently transfected are plated in media in plates (96-well, 384-well or other plates) and incubated overnight at 37 C in a CO2 incubator.
The next day, an AHR agonist compound is added. Cells are incubated for 6, 16 or 24 hours or another time point and then lysed for determination of luciferase activity as a read-out of the AHR activation. Luciferase can be measured with a commercial kit such as the Promega Luciferase kit or any kit or reagents that provide the luciferin substrate for measuring luciferase activity. The level of luciferase with only activating ligand (e.g. such as TCDD, kynurenine, ITE (2-(1H-indole-3-ylcarbonyl)-4-thiazolecarboxylic methyl ester), VAF347, BNF (beta-naphthoflavone), ICZ (6-formylindolo(3,2-b) carbazole or other AHR ligands) added is the maximum signal while the luciferase with no ligand is the minimum signal. EC50s can be determined as the concentration which activates half of the maximum luciferase activity.

Cyp1a1 gene expression = system: Cyp1a1 gene expression; parameters: species or system C57BL/6N mice; conditions: mouse, in vivo
Description: C57BL/6N mice are weighed and randomized into treatment groups with group size of 3-5 mice. On study Day 1, treatment is initiated and necropsies follow on day 1 at 4 and 12 hours post-dose and on Day 2, 24 hours post-dose. On Day 1, mice are dosed orally with one dose of the AHR agonist compound(s) that are in a suspension and mixed well before dosing. At the designated time, animals are euthanized and plasma and tissue taken for compound levels (PK) and compound effect (PD) on gene expression. Liver samples and proximal colon are weighed and then frozen for subsequent RNA extraction and RT-PCR analysis. AHR activation is determined by measuring Cyp1a1 gene expression relative to a housekeeping gene, such as GAPDH or HPRT. Cyp1a1 expression levels in the liver are compared to Cyp1a1 levels in the colon to determine a colon:liver ratio to determine the level of GI preferred AHR activation.

Row | pEC50 (AHR [1]; HepG2, Table 3) | pEC50 (AHR [4]) | Compound | also measured
1 |  |  | FC(F)(F)c1cccc(Nc2nc(-c3cccc(/N=N/c4cccc(-c5csc(Nc6cccc(C(F)(F)F)c6)n5)c4)c3)cs2)c1 [I-41] | pEC50 (AHR [1]; HepG2, Table 2): 6.00 to 7.00; pEC50 (AHR [2]): < 6.00; histology evaluation of inflammation ([3]; DSS model, compared with ITE administration, FIG. 8): comparable activity
2 | < 6.00 | < 6.00 | C[N+]1(C)CCN(C(=O)c2cccc(Nc3nc(-c4ccc[n+]([O-])c4)cs3)c2)CC1 [I-159] | 
3 | > 8.00 | < 6.00 | COC(=O)COc1cc(-c2csc(Nc3cccc(C(F)(F)F)c3)n2)ccn1 [I-160] | 
4 | 6.00 to 7.00 | < 6.00 | O=C(O)c1cccc(/N=N/c2cccc(-c3csc(Nc4cccc(C(F)(F)F)c4)n3)c2)c1 [I-161] | Cyp1a1 induction in the colon (Cyp1a1 gene expression; C57BL/6N, po): Cyp1a1 induction in the colon at low doses; Cyp1a1 induction in the colon (Cyp1a1 gene expression): comparable; Cyp1a1 induction in the liver (Cyp1a1 gene expression): significantly less induction; colon:liver ratio of Cyp1a1 expression (Cyp1a1 gene expression): colon-preferred activity; inflammation and erosion (histopathology) ([3]; DSS model, relative to vehicle control, FIG. 6, FIG. 19): reduced inflammation and erosion; activity at all doses compared with CSA ([3]; DSS model, FIG. 18B): comparable or better than CSA; histopathology data compared with CSA ([3]; DSS model, FIG. 18B): activity comparable to CSA; inflammation, edema, hyperplasia, and lymphoid aggregate size ([3]; DSS model, FIG. 19): reduction; efficacy in DSS IBD mouse model ([3]; FIGS. 18A-18B): demonstrates efficacy
5 | < 6.00 | < 6.00 | O=C(O)c1cc(/N=N/c2cccc(-c3csc(Nc4cccc(C(F)(F)F)c4)n3)c2)ccc1O [I-162] | 
6 | > 8.00 | > 8.00 | Nc1cc(-c2csc(Nc3cccc(C(F)(F)F)c3)n2)ccc1F [I-163] | 
7 | > 8.00 | > 8.00 | Nc1cncc(-c2csc(Nc3cccc(C(F)(F)F)c3)n2)c1 [I-164] | 
8 | > 8.00 | > 8.00 | Nc1cc(-c2csc(Nc3cccc(C(F)(F)F)c3)n2)c(F)cc1F [I-165] | 
9 | > 8.00 | > 8.00 | Nc1ccc(F)c(-c2csc(Nc3cccc(C(F)(F)F)c3)n2)c1 [I-166] | 
10 | 6.00 to 7.00 | 6.00 to 7.00 | COC(=O)/C(C)=N/Nc1cccc(-c2csc(Nc3cccc(C(F)(F)F)c3)n2)c1 [I-167] | 
11 | < 6.00 | < 6.00 | Nc1ccnc(-c2csc(Nc3cccc(C(F)(F)F)c3)n2)c1 [I-168] | 
12 | 6.00 to 7.00 | 6.00 to 7.00 | Fc1ccc(/N=N/c2ccc(F)c(-c3csc(Nc4cccc(C(F)(F)F)c4)n3)c2)cc1-c1csc(Nc2cccc(C(F)(F)F)c2)n1 [I-169] | 
13 | 7.00 to 8.00 | 7.00 to 8.00 | O=C(Nc1cncc(-c2csc(Nc3cccc(C(F)(F)F)c3)n2)c1)Nc1cncc(-c2csc(Nc3cccc(C(F)(F)F)c3)n2)c1 [I-170] | 
14 | < 6.00 | < 6.00 | Fc1ccc(-c2csc(Nc3cccc(C(F)(F)F)c3)n2)cc1/N=N/c1cc(-c2csc(Nc3cccc(C(F)(F)F)c3)n2)ccc1F [I-171] | 
15 | 7.00 to 8.00 | < 6.00 | Nc1ccccc1-c1csc(Nc2ccccc2C(F)(F)F)n1 [I-172] | 
16 | 6.00 to 7.00 | 6.00 to 7.00 | O=C(O)c1cccc(/N=N/c2cc(-c3csc(Nc4cccc(C(F)(F)F)c4)n3)ccc2F)c1 [I-173] | 
17 | 6.00 to 7.00 | 6.00 to 7.00 | O=C(O)c1cccc(/N=N/c2cc(-c3csc(Nc4cccc(C(F)(F)F)c4)n3)c(F)cc2F)c1 [I-174] | 
18 | 6.00 to 7.00 | 6.00 to 7.00 | FC(F)(F)c1cccc(Nc2nc(-c3cncc(NNc4cncc(-c5csc(Nc6cccc(C(F)(F)F)c6)n5)c4)c3)cs2)c1 [I-175] | 
19 | < 6.00 | < 6.00 | O=C(O)c1cc(/N=N/c2cccc(-c3csc(Nc4cccc(C(F)(F)F)c4)n3)c2)cc(C(=O)O)c1 [I-176] | 
20 | 7.00 to 8.00 | > 8.00 | Nc1ccccc1-c1csc(Nc2cccc(C(F)(F)F)c2)n1 [I-177] | 
21 | < 6.00 | < 6.00 | O=C(O)c1cc(/N=N/c2cc(-c3csc(Nc4cccc(C(F)(F)F)c4)n3)ccc2F)ccc1O [I-178] | 
22 | 6.00 to 7.00 | < 6.00 | O=C(O)c1cc(/N=N/c2ccc(F)c(-c3csc(Nc4cccc(C(F)(F)F)c4)n3)c2)ccc1O [I-179] | 
